Measured values reported in PubChem BioAssay (NCI).
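GI50: concentration for 50% inhibition of growth. TGI marks complete inhibition of growth.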

Assays:
Assay in all cases: DTP human tumour cell line panel, 384-well format
[1] = system: U251 glioblastoma
[2] = system: SNB-75 CNS
[3] = system: SNB-19 CNS
[4] = system: NCI-H322M lung
[5] = system: DU-145 prostate
[6] = system: SK-OV-3 ovarian
[7] = system: EKVX NSCLC
[8] = system: SF-539 CNS
[9] = system: COLO 205 colon
[10] = system: HT29 colon
[11] = system: SF-268 CNS
[12] = system: A549 NSCLC
[13] = system: CCRF-CEM leukemia
[14] = system: MOLT-4 leukemia
[15] = system: MALME-3M melanoma
[16] = system: SF-295 CNS
[17] = system: TK-10 renal
[18] = system: RPMI-8226 leukemia
[19] = system: MCF7 breast
[20] = system: NCI-H23 lung
[21] = system: SK-MEL-28 melanoma
[22] = system: HL-60(TB) leukemia
[23] = system: OVCAR-5 ovarian
[24] = system: T-47D breast
[25] = system: A498 renal
[26] = system: SW-620 colon
[27] = system: 786-0 renal
[28] = system: PC-3 prostate
[29] = system: UO-31 renal
[30] = system: NCI-H226 lung
[31] = system: UACC-62 melanoma
[32] = system: OVCAR-4 ovarian
[33] = system: MDA-MB-468 breast
[34] = system: M14 melanoma
[35] = system: KM12 colon
[36] = system: HOP-62 NSCLC
[37] = system: HCT-15 colon
[38] = system: HS 578T breast
[39] = system: SK-MEL-5 melanoma
[40] = system: OVCAR-8 ovarian
[41] = system: OVCAR-3 ovarian
[42] = system: LOX IMVI melanoma
[43] = system: RXF 393 renal
[44] = system: IGROV1 ovarian
[45] = system: MDA-MB-231 breast
[46] = system: MDA-MB-435 melanoma
[47] = system: ACHN renal
[48] = system: UACC-257 melanoma
[49] = system: BT-549 breast
[50] = system: SR leukemia
[51] = system: SN12C renal
[52] = system: NCI-H460 NSCLC
[53] = system: CAKI-1 renal
[54] = system: NCI-H522 lung
[55] = system: HCT-116 colon
[56] = system: NCI/ADR-RES ovarian
[57] = system: K-562 leukemia
[58] = system: HCC-2998 colon
[59] = system: HOP-92 NSCLC

COc1ccc2[nH]c3c(c2c1)CCN[C@]31CS[C@@H]2c3c(OC(C)=O)c(C)c4c(c3[C@H](COC1=O)N1[C@@H]2[C@H]2c3c(cc(C)c(OC)c3O)C[C@@H]([C@@H]1O)N2C)OCO4
GI50 [1]: 0.112 nM | TGI [1]: 0.554 nM | GI50 [2]: 0.0809 nM | TGI [2]: 0.224 nM | GI50 [3]: 0.124 nM | GI50 [4]: 0.522 nM | TGI [4]: 1.29 nM | GI50 [5]: 0.196 nM | TGI [5]: 0.367 nM | GI50 [6]: 0.181 nM | TGI [6]: 9.81 nM | GI50 [7]: 0.649 nM | TGI [7]: 1.49 nM | GI50 [8]: 0.0587 nM | TGI [8]: 0.111 nM | GI50 [9]: 0.432 nM | TGI [9]: 1.06 nM | GI50 [10]: 0.123 nM | TGI [10]: 0.42 nM | GI50 [11]: 0.0705 nM | TGI [11]: 0.186 nM | GI50 [12]: 0.65 nM | TGI [12]: 2.91 nM | GI50 [13]: 0.0192 nM | TGI [13]: 0.0348 nM | GI50 [14]: 0.0141 nM | TGI [14]: 0.0474 nM | GI50 [15]: 0.0967 nM | TGI [15]: 0.273 nM | GI50 [16]: 0.0573 nM | TGI [16]: 0.115 nM | GI50 [17]: 2.64 nM | TGI [17]: 7.17 nM | GI50 [18]: 0.0579 nM | TGI [18]: 0.108 nM | GI50 [19]: 0.12 nM | TGI [19]: 5.95 nM | GI50 [20]: 0.0752 nM | TGI [20]: 0.194 nM | GI50 [21]: 0.44 nM | TGI [21]: 0.877 nM | GI50 [22]: 0.0524 nM | TGI [22]: 0.0982 nM | GI50 [23]: 0.51 nM | GI50 [24]: 0.41 nM | TGI [24]: 2.56 nM | GI50 [25]: 1.16 nM | TGI [25]: 2.96 nM | GI50 [26]: 0.502 nM | TGI [26]: 6.77 nM | GI50 [27]: 0.194 nM | TGI [27]: 0.348 nM | GI50 [28]: 0.337 nM | TGI [28]: 2.85 nM | GI50 [29]: 1.68 nM | TGI [29]: 3.1 nM | GI50 [30]: 0.109 nM | TGI [30]: 0.452 nM | GI50 [31]: 0.0874 nM | TGI [31]: 0.31 nM | GI50 [32]: 2.59 nM | TGI [32]: 5.77 nM | GI50 [33]: 0.0569 nM | TGI [33]: 0.119 nM | GI50 [34]: 0.0827 nM | TGI [34]: 0.191 nM | GI50 [35]: 1.44 nM | TGI [35]: 3.96 nM | GI50 [36]: 0.0549 nM | TGI [36]: 0.115 nM | GI50 [37]: 0.414 nM | TGI [37]: 1.06 nM | GI50 [38]: 0.13 nM | TGI [38]: 0.372 nM | GI50 [39]: 0.0874 nM | TGI [39]: 0.243 nM | GI50 [40]: 0.126 nM | TGI [40]: 0.487 nM | GI50 [41]: 0.189 nM | TGI [41]: 0.863 nM | GI50 [42]: 0.0682 nM | TGI [42]: 0.18 nM | GI50 [43]: 0.0493 nM | TGI [43]: 0.111 nM | GI50 [44]: 0.416 nM | TGI [44]: 7.86 nM | GI50 [45]: 0.786 nM | TGI [45]: 2.42 nM | GI50 [46]: 0.594 nM | TGI [46]: 1.1 nM | GI50 [47]: 0.435 nM | TGI [47]: 1.61 nM | GI50 [48]: 0.428 nM | TGI [48]: 0.848 nM | GI50 [49]: 0.0503 nM | TGI [49]: 0.113 nM | GI50 [50]: 0.0186 nM | TGI [50]: 0.0575 nM | GI50 [51]: 0.107 nM | TGI [51]: 0.422 nM | GI50 [52]: 0.104 nM | TGI [52]: 0.446 nM | GI50 [53]: 0.156 nM | TGI [53]: 6.95 nM | GI50 [54]: 0.0779 nM | TGI [54]: 0.261 nM | GI50 [55]: 0.16 nM

CCN1C(=O)CCCc2c1ccc(Nc1ncc(Cl)c(NC3[C@@H](C(N)=O)[C@@H]4C=C[C@H]3C4)n1)c2OC (stereo partly drawn)
GI50 [1]: 632 nM | TGI [1]: 10900 nM | GI50 [2]: 1100 nM | TGI [2]: 9580 nM | GI50 [3]: 1380 nM | TGI [3]: 7130 nM | GI50 [4]: 1900 nM | TGI [4]: 5610 nM | GI50 [5]: 577 nM | TGI [5]: 2800 nM | GI50 [6]: 1400 nM | TGI [6]: 3250 nM | GI50 [7]: 927 nM | TGI [7]: 3260 nM | GI50 [8]: 475 nM | TGI [8]: 1780 nM | GI50 [9]: 318 nM | TGI [9]: 1190 nM | GI50 [10]: 450 nM | TGI [10]: 2000 nM | GI50 [11]: 1220 nM | TGI [11]: 4350 nM | GI50 [12]: 366 nM | TGI [12]: 2550 nM | GI50 [13]: 220 nM | TGI [13]: 402 nM | GI50 [14]: 137 nM | TGI [14]: 287 nM | GI50 [15]: 517 nM | TGI [15]: 1920 nM | GI50 [16]: 812 nM | TGI [16]: 8310 nM | GI50 [17]: 1300 nM | TGI [17]: 3750 nM | GI50 [18]: 226 nM | TGI [18]: 501 nM | GI50 [19]: 562 nM | TGI [19]: 2340 nM | GI50 [20]: 430 nM | TGI [20]: 1620 nM | GI50 [21]: 1080 nM | TGI [21]: 2570 nM | GI50 [22]: 254 nM | TGI [22]: 532 nM | GI50 [23]: 559 nM | TGI [23]: 2310 nM | GI50 [24]: 1070 nM | TGI [24]: 4240 nM | GI50 [25]: 1770 nM | TGI [25]: 11500 nM | GI50 [26]: 434 nM | TGI [26]: 1720 nM | GI50 [27]: 624 nM | TGI [27]: 2330 nM | GI50 [28]: 1240 nM | TGI [28]: 3810 nM | GI50 [29]: 1630 nM | TGI [29]: 14300 nM | GI50 [30]: 1130 nM | TGI [30]: 4420 nM | GI50 [56]: 1070 nM | TGI [56]: 2400 nM | GI50 [31]: 536 nM | TGI [31]: 1800 nM | GI50 [32]: 1100 nM | TGI [32]: 2700 nM | GI50 [33]: 365 nM | TGI [33]: 912 nM | GI50 [34]: 499 nM | TGI [34]: 1700 nM | GI50 [57]: 722 nM | TGI [57]: 11600 nM | GI50 [35]: 1100 nM | TGI [35]: 8560 nM | GI50 [36]: 644 nM | TGI [36]: 2990 nM | GI50 [37]: 288 nM | TGI [37]: 1210 nM | GI50 [38]: 437 nM | TGI [38]: 1670 nM | GI50 [39]: 578 nM | TGI [39]: 1950 nM | GI50 [58]: 1680 nM | TGI [58]: 3070 nM | GI50 [40]: 349 nM | TGI [40]: 1220 nM | GI50 [41]: 1020 nM | TGI [41]: 2770 nM | GI50 [42]: 334 nM | TGI [42]: 1200 nM | GI50 [59]: 665 nM | TGI [59]: 3990 nM | GI50 [43]: 1620 nM | TGI [43]: 3950 nM | GI50 [44]: 1320 nM | TGI [44]: 2770 nM | GI50 [45]: 726 nM | TGI [45]: 4400 nM | GI50 [46]: 728 nM | TGI [46]: 3490 nM | GI50 [47]: 1200 nM | TGI [47]: 7310 nM | GI50 [48]: 677 nM | TGI [48]: 2150 nM | GI50 [49]: 509 nM | TGI [49]: 1880 nM | GI50 [50]: 38 nM | TGI [50]: 126 nM | GI50 [51]: 1210 nM | TGI [51]: 11100 nM | GI50 [52]: 355 nM | TGI [52]: 9120 nM | GI50 [53]: 1230 nM | TGI [53]: 4500 nM | GI50 [54]: 385 nM | TGI [54]: 1310 nM
